Reference: US4459290A, “C-23-Modified derivatives of OMT, pharmaceutical compositions and method of use” (priority 1982, dated 1984)
Values after ≈ are worked out from the molar mass of the structure shown. Like-named read-outs stand apart in the source and are kept apart here.

Columns and labels:
Mycoplasma hyorhinis = experiment: MIC, broth-dilution microtiter test (Table VII); format: cell-based
Procedure: (§1) Especially noteworthy is the improved activity against gram-negative bacteria for several derivatives when compared to the activity of OMT. […] The MIC's in Tables V and VI were determined by standard agar-dilution assays. The MIC's in Table VII were obtained using a conventional broth-dilution microtiter test.

[1] = tested on: Pasteurella hemolytica 23C; experiment: MIC, broth-dilution microtiter test (Table VII); format: cell-based; details: Pasteurella, P. hemolytica 23C, read-out: MIC
Procedure: as §1

[2] = tested on: Pasteurella hemolytica 41D; experiment: MIC, broth-dilution microtiter test (Table VII); format: cell-based; details: Pasteurella, P. hemolytica 41D, read-out: MIC
Procedure: as §1

[3] = tested on: Pasteurella multocida 17E; experiment: MIC, broth-dilution microtiter test (Table VII); format: cell-based; details: Pasteurella multocida
Procedure: as §1

Staphylococcus aureus = experiment: MIC, broth-dilution microtiter test (Table VII); format: cell-based; details: Staphylococcus aureus
Procedure: as §1

[4] = tested on: Pasteurella multocida 22A; experiment: MIC, broth-dilution microtiter test (Table VII); format: cell-based; details: Pasteurella multocida; P. multocida 22A; broth-dilution microtiter; read-out: MIC
Procedure: as §1

[5] = tested on: Pasteurella multocida 60A; experiment: MIC, broth-dilution microtiter test (Table VII); format: cell-based; details: Pasteurella multocida
Procedure: as §1

Streptococcus sp. 80 = experiment: MIC, broth-dilution microtiter test (Table VII); format: cell-based; details: Streptococcus sp. 80; broth-dilution microtiter; read-out: MIC
Procedure: as §1

[6] = tested on: Pasteurella hemolytica 22C; experiment: MIC, broth-dilution microtiter test (Table VII); format: cell-based; details: Pasteurella, P. hemolytica 22C, read-out: MIC
Procedure: as §1

Mycoplasma gallisepticum = experiment: MIC, broth-dilution microtiter test (Table VII); format: cell-based; details: Mycoplasmoides gallisepticum
Procedure: as §1

[7] = tested on: Pasteurella multocida 68C; experiment: MIC, broth-dilution microtiter test (Table VII); format: cell-based; details: Pasteurella multocida
Procedure: as §1

Mycoplasma synoviae = experiment: MIC, broth-dilution microtiter test (Table VII); format: cell-based; details: Mycoplasmopsis synoviae; M. synoviae; broth-dilution microtiter; read-out: MIC
Procedure: as §1

[8] = tested on: Pasteurella multocida 40G; experiment: MIC, broth-dilution microtiter test (Table VII); format: cell-based; details: Pasteurella multocida; P. multocida 40G; broth-dilution microtiter; read-out: MIC
Procedure: as §1

[9] = tested on: Haemophilus influenzae Holt; experiment: MIC, standard agar-dilution assay (Table V); format: cell-based; details: Haemophilus influenzae
Procedure: (§2) The MIC's in Tables V and VI were determined by standard agar-dilution assays. The MIC's in Table VII were obtained using a conventional broth-dilution microtiter test.

[10] = tested on: Haemophilus influenzae R252; experiment: MIC, standard agar-dilution assay (Table V); format: cell-based; details: Haemophilus influenzae, R252
Procedure: as §2

[11] = tested on: Streptococcus pyogenes C203; experiment: MIC, standard agar-dilution assay (Table V); format: cell-based; details: Streptococcus pyogenes
Procedure: as §2

Escherichia coli TEM = experiment: MIC, standard agar-dilution assay (Table V); format: cell-based; details: Escherichia coli
Procedure: as §2

[12] = tested on: Streptococcus pneumoniae Park I; experiment: microbe, parasite or virus in culture; format: cell-based; details: Streptococcus pneumoniae
Procedure: as §1

[13] = tested on: Staphylococcus aureus S13E; experiment: MIC, standard agar-dilution assay (Table V); format: cell-based; details: Staphylococcus aureus, S13E
Procedure: as §1

[14] = tested on: Staphylococcus aureus V41; experiment: MIC, standard agar-dilution assay (Table V); format: cell-based; details: Staphylococcus aureus, V41
Procedure: as §1

[15] = tested on: Staphylococcus aureus X400; experiment: MIC, standard agar-dilution assay (Table V); format: cell-based; details: Staphylococcus aureus
Procedure: as §1

Shigella sonnei N9 = experiment: MIC, standard agar-dilution assay (Table V); format: cell-based
Procedure: as §1

Streptococcus Group 9960 = experiment: MIC, standard agar-dilution assay (Table V); format: cell-based; details: GROUP9960
Procedure: as §1

[16] = tested on: Klebsiella pneumoniae KAE; experiment: MIC, standard agar-dilution assay (Table V); format: cell-based; details: Klebsiella pneumoniae
Procedure: as §1

[17] = tested on: Staphylococcus aureus X1.1; experiment: MIC, standard agar-dilution assay (Table V); format: cell-based; details: Staphylococcus aureus, X1.1
Procedure: as §1

Escherichia coli EC14 = experiment: MIC, standard agar-dilution assay (Table V); format: cell-based; details: Escherichia coli, EC14
Procedure: as §1

[18] = tested on: Staphylococcus epidermidis EPI2; experiment: MIC, standard agar-dilution assay (Table V); format: cell-based; details: Staphylococcus epidermidis
Procedure: as §1

[19] = tested on: Streptococcus Group D X66; experiment: MIC, standard agar-dilution assay (Table V); format: cell-based
Procedure: as §1

[20] = tested on: Staphylococcus epidermidis EPI1; experiment: MIC, standard agar-dilution assay (Table V); format: cell-based; details: Staphylococcus epidermidis
Procedure: as §1

[21] = tested on: Klebsiella pneumoniae X26; experiment: MIC, standard agar-dilution assay (Table V); format: cell-based; details: Klebsiella pneumoniae
Procedure: as §1

Escherichia coli N10 = experiment: MIC, standard agar-dilution assay (Table V); format: cell-based; details: Escherichia coli, N10
Procedure: as §1

Pasteurella multocida = experiment: Protection of one-day-old chicks against Pasteurella multocida infection (Table IX); format: in vivo; details: subcutaneous 30 mg/kg × 2, 1 and 4 hours post-challenge
Procedure: The C-23 modified derivatives of OMT have also shown in vivo antibacterial activity against infections induced by gram-negative bacteria. Table IX summarizes the results of tests in which illustrative compounds were evaluated against Pasteurella infections in one-day-old chicks. The compounds were administered by subcutaneous injection at a dosage of 30 mg/kg, 1 and 4 hours post-challenge of the chicks with Pasteurella multocida (0.1 ml of a twenty-hour tryptose broth culture of an avian P. multocida given subcutaneously). In the tests, all ten non-medicated infected chicks died within 24 hours of Pasteurella challenge.

[22] = tested on: Streptococcus pyogenes C203; experiment: ED50 in mice experimentally infected with S. pyogenes C203 (Table VIII); format: in vivo
Procedure: The C-23 modified derivatives of OMT of this invention have shown in vivo antimicrobial activity against experimental infections. When two doses of test compound were administered to mice experimentally infected with a gram-positive bacterium, S. pyogenes C203, the activity observed was measured as an ED50 value [effective dose in mg/kg to protect 50% of the test animals: see Warren Wick, et al., J. Bacteriol. 81, 233-235 (1961)].

SMILES	MIC [1] [µg/mL]	MIC [2] [µg/mL]	MIC [4] [µg/mL]	MIC (Streptococcus sp. 80) [µg/mL]	MIC [6] [µg/mL]	MIC (Mycoplasma synoviae) [µg/mL]	MIC [8] [µg/mL]	MIC [9] [µg/mL]	MIC [10] [µg/mL]	MIC [13] [µg/mL]	MIC [14] [µg/mL]	MIC (Shigella sonnei N9) [µg/mL]	MIC [16] [µg/mL]	MIC [17] [µg/mL]	MIC (Escherichia coli EC14) [µg/mL]	MIC (Escherichia coli N10) [µg/mL]	Number of deaths/number treated (Pasteurella multocida)	further results
CCC1OC(=O)CC(O)C(C)C(OC2OC(C)C(O)C(N(C)C)C2O)C(CC=O)CC(C)C(=O)C=CC(C)=CC1CNC(=O)[C@H](NC(=O)OC(C)(C)C)c1ccccc1 (single isomer, unassigned) [Compound 11, 23-Deoxy-23-[(D)-(-)-(N-t-BOC-phenylglycyl)amino]-OMT]	25 (≈ 30.1 µM)	50 (≈ 60.2 µM)	12.5 (≈ 15.1 µM)	0.78 (≈ 0.94 µM)	25 (≈ 30.1 µM)	0.78 (≈ 0.94 µM)	12.5 (≈ 15.1 µM)	8 (≈ 9.64 µM)	8 (≈ 9.64 µM)	2 (≈ 2.41 µM)	2 (≈ 2.41 µM)	> 128	> 128	1 (≈ 1.2 µM)	> 128	> 128	10/10	MIC (Mycoplasma hyorhinis; M. hyorhinis, broth-dilution microtiter, read-out: MIC): > 50 µg/mL; MIC ([3]; P. multocida 17E, bovine isolate, broth-dilution microtiter, read-out: MIC): 6.25 µg/mL (≈ 7.53 µM); MIC (Staphylococcus aureus; S. aureus, broth-dilution microtiter, read-out: MIC): 3.12 µg/mL (≈ 3.76 µM); MIC ([5]; P. multocida 60A, avian isolate, broth-dilution microtiter, read-out: MIC): 12.5 µg/mL (≈ 15.1 µM); MIC (Mycoplasma gallisepticum; M. gallisepticum, broth-dilution microtiter, read-out: MIC): 0.78 µg/mL (≈ 0.94 µM); MIC ([7]; P. multocida 68C, broth-dilution microtiter, read-out: MIC): 6.25 µg/mL (≈ 7.53 µM); MIC ([11]; S. pyogenes C203, agar dilution, read-out: MIC): 0.5 µg/mL (≈ 0.602 µM); MIC (Escherichia coli TEM): > 128 µg/mL; MIC ([12]; S. pneumoniae Park I, agar dilution, read-out: MIC): 0.25 µg/mL (≈ 0.301 µM); MIC ([15]; S. aureus X400, methicillin-resistant strain, agar dilution, read-out: MIC): 4 µg/mL (≈ 4.82 µM); MIC (Streptococcus Group 9960; Streptococcus Group 9960, agar dilution, read-out: MIC): 2 µg/mL (≈ 2.41 µM); MIC ([18]; S. epidermidis EPI2, agar dilution, read-out: MIC): 4 µg/mL (≈ 4.82 µM); MIC ([19]; Streptococcus Group D X66, agar dilution, read-out: MIC): 2 µg/mL (≈ 2.41 µM); MIC ([20]; S. epidermidis EPI1, agar dilution, read-out: MIC): 1 µg/mL (≈ 1.2 µM); MIC ([21]; K. pneumoniae X26, agar dilution, read-out: MIC): 16 µg/mL (≈ 19.3 µM)
CCC1OC(=O)CC(O)C(C)C(OC2OC(C)C(O)C(N(C)C)C2O)C(CC=O)CC(C)C(=O)C=CC(C)=CC1CNC(=O)Cc1ccccc1 (stereo not drawn) [Compound 10, 23-Deoxy-23-N-(phenylacetyl)amino-OMT]	12.5 (≈ 17.5 µM)	25 (≈ 35 µM)	25 (≈ 35 µM)	0.19 (≈ 0.266 µM)	12.5 (≈ 17.5 µM)	0.19 (≈ 0.266 µM)	12.5 (≈ 17.5 µM)	2 (≈ 2.8 µM)	2 (≈ 2.8 µM)	0.5 (≈ 0.699 µM)	1 (≈ 1.4 µM)	> 128	> 128	0.5 (≈ 0.699 µM)	> 128	> 128	3/10	MIC (Mycoplasma hyorhinis): 50 µg/mL (≈ 69.9 µM); MIC ([3]; 17E): 3.12 µg/mL (≈ 4.36 µM); MIC (Staphylococcus aureus): 0.78 µg/mL (≈ 1.09 µM); MIC ([5]; 60A): 3.12 µg/mL (≈ 4.36 µM); MIC (Mycoplasma gallisepticum): 1.56 µg/mL (≈ 2.18 µM); MIC ([7]; 68C): 1.56 µg/mL (≈ 2.18 µM); MIC ([11]; C203): 0.25 µg/mL (≈ 0.35 µM); MIC (Escherichia coli TEM; E. coli TEM, agar dilution, read-out: MIC): 32 µg/mL (≈ 44.8 µM); MIC [12]: 0.25 µg/mL (≈ 0.35 µM); MIC ([15]; X400): 1 µg/mL (≈ 1.4 µM); MIC (Streptococcus Group 9960): 0.5 µg/mL (≈ 0.699 µM); MIC ([18]; EPI2): 1 µg/mL (≈ 1.4 µM); MIC [19]: 0.5 µg/mL (≈ 0.699 µM); MIC ([20]; EPI1): 0.25 µg/mL (≈ 0.35 µM); MIC ([21]; X26): 8 µg/mL (≈ 11.2 µM); ED50 ([22]; C203, po, read-out: ED50, Oral): > 100 mg/kg; ED50 ([22]; C203, sc, mice, subcutaneous, doses given 1 and 4 hours postinfection, read-out: ED50, Subcutaneous): 5.8 mg/kg
